Results reported in paper PMC9061999, “Application of the Adverse Outcome Pathway Concept to In Vitro Nephrotoxicity Assessment: Kidney Injury due to Receptor-Mediated Endocytosis and Lysosomal Overload as a Case Study” (Frontiers in Toxicology, 2022).

Tests used:
RPTEC/TERT1 cells [1] = assay: CellTiter-Glo cytotoxicity assay (KE3); format: cell-based, human; conditions: for BMC10, KE3: in vitro POD from KE dose-response, cell viability CellTiter-Glo, RPTEC/TERT1, 24 h treatment, n = 3; for MOE, KE3: margin of exposure: BMC10 in RPTEC/TERT1 vs human plasma/serum concentration (cmax or css)
Protocol: Cells were plated into 96-well tissue culture plates (10,000 cells per well) and were allowed to grow for 48 h (NRK-52E) respectively 10 d (RPTEC/TERT1) prior to 24 h treatment with model stressors. Stock solution for each compound (2000 µM) was prepared in growth medium and serial dilutions (1:1) were made before each experiment. At the end of the 24 h treatment, cell viability was measured using the CellTiter-Glo® assay (Promega). CellTiter-Glo® reagents and buffer were mixed under light-protected conditions and 100 µL CellTiter-Glo® solution was added directly to each well followed by 2 min incubation on an orbital shaker and 10 min incubation at room temperature in the dark to stabilize the luminescence signal. The suspension was mixed via pipetting and 50 µL were transferred into white 96-well plates (PerkinElmer Inc.). The luminescence signal was measured on a multiplate reader (Mithras LB 940; Berthold). Each assay was performed in three independent experiments carried out in triplicates.

RPTEC/TERT1 cells [2] = assay: LC-MS/MS analysis of intracellular concentration; format: in vitro ADME, human; conditions: for Intracellular concentration after recovery compared to the 24 h time-point: RPTEC/TERT1, 34 µM for 24 h, then 24 h in fresh medium; for Time course of intracellular concentration: within the 24 h treatment period (1-2 min, 1, 3, 6, 24 h), n = 3
Protocol: NRK-52E and RPTEC/TERT1 cells were seeded in 12-well plates (120,000 cells per well) and were allowed to grow for 48 h (NRK-52E) or 10 d (RPTEC/TERT1) until they reached 100% confluence. After cells achieved 100% confluence, the supernatant was aspirated, and the cells were washed twice with 1 x PBS. Cells were treated with polymyxins at a final concentration of 34 µM for 24 h. Samples were taken at five different treatment time points (1–2 min, 1, 3, 6, and 24 h). In addition, a recovery sample was taken 24 h after the end of the 24 h treatment period. To this end, the supernatant was aspirated after 24 h treatment and the cells were washed three times with 1 x PBS to remove polymyxin B or colistin residues. Fresh growth medium was added, and the cells were incubated for another 24 h. At the end of each experiment, the cells were washed 3 times with 1 x PBS and trypsinized by adding 200 µL of trypsin. Detached cells were washed with 1,000 µL 1 x PBS and the cells were transferred to LoBind™ tubes (Eppendorf). Cell count was determined using a Fuchs-Rosenthal counting chamber (Hartenstein). Cells were centrifuged for 5 min at 4°C at 10.000 rpm and the supernatant was aspirated. Cells were resuspended in 1,000 µL 1 x PBS and centrifuged for 5 min at 4°C at 10.000 rpm. After centrifugation, the supernatant was aspirated, and the cell pellet was resuspended in 250 µL ammonium acetate buffer (10 mM) and 250 µL of 30% methanol with 1% acetic acid containing polymyxin B respectively colistin as an internal standard. Cells were sonicated for 10 min and centrifuged for 5 min at 4°C at 14.000 rpm. The supernatant was transferred quantitatively into new LoBind™ tubes (Eppendorf) and dried in a centrifugal vacuum concentrator for 2–3 h. To measure compound plastic binding, the empty 12 well plates were washed with 1.5 ml acetonitrile on an orbital shaker for 2 h and supernatant was collected. For sample purification via solid phase extraction, SPE cartridges Strata-X 33 µm polymeric reversed phase, 10 mg/1 ml (Phenomenex) were used. In the conditioning step the cartridges were rinsed with 200 µL methanol (100%) and subsequently with 200 µL ddH2O to activate the sorbent bed. The dried samples were dissolved in 200 µL 1% acetic acid and transferred onto the SPE cartridge. The SPE cartridge were rinsed once with 200 µL 1% acetic acid. Impurities were removed by rinsing the cartridge once with 200 µL 10% methanol. A fresh LoBind™ tube (Eppendorf) was placed under the SPE cartridge to eluate the samples by rinsing twice with 200 µL 90% methanol containing 1% acetic acid. The samples were dried in a centrifugal vacuum concentrator for 2–3 h. All samples were stored at −20°C until LC-MS/MS analysis.
A triple quadrupole mass spectrometer equipped with a Turbo-Ion® Spray source (QTrap API 2000; AB Sciex Instruments) was used for analyses. The mass spectrometer was coupled to an Agilent 1100 HPLC system consisting of a binary pump system, a vacuum degasser and an autosampler (Agilent 1,100). […]

Substance | BMC10, KE3 (RPTEC/TERT1 cells [1]) | MOE, KE3 (RPTEC/TERT1 cells [1]) | Intracellular concentration after recovery compared to the 24 h time-point (RPTEC/TERT1 cells [2]) | Time course of intracellular concentration (RPTEC/TERT1 cells [2]; RPTEC/TERT1, 34 µM) | Intracellular concentration compared to polymyxin B (RPTEC/TERT1 cells [2]; RPTEC/TERT1, 34 µM)
Polymyxin B | 14.2 µM | 3.5 – 24.9 | declined during the 24 h off-dose recovery period | continuous rise in the intracellular concentration | –
Colistin | 23.5 µM | 2.9 – 56.0 | declined during the 24 h off-dose recovery period | continuous rise in the intracellular concentration | lower intracellular concentrations
